# Measurements from US20090162286A1, “Phosphodiesterase 10 Inhibition as Treatment for Obesity-Related and Metabolic Syndrome-Related Conditions” (Pfizer Inc., priority 2004, published 2009).
# Experiments:
# [1] = Obesity Food Intake Model - Fasted-Induced Feeding Assay; assay type: in vivo, rat; settings: fasted male CD rats; for effect on food intake (fasting-induced refeeding): 10 mg/kg, given 30 minutes prior to return of food, vs vehicle-treated control; for fasting-induced refeeding, dose dependence: Compound IIA 0.1, 1, 10 mg/kg, Compound IIIA 1, 3, 10, 32 mg/kg, comparator rimonabant 3 mg/kg
# Protocol: PDE10 inhibitors were also tested for efficacy in reducing the acute re-feeding response following food withdrawal. Male CD rats were fasted overnight. Rats were administered a PDE10 inhibitor (Compound IIA and IIIA in separate tests) 30 minutes prior to the return of food. Food consumption was monitored and weighed at predetermined time points and the effect of PDE10 inhibitors were compared to vehicle-treated control rats.
# Compound IIA, Compound IIIA and rimonabant were tested in the fasted-induced feeding assay described above. Compound IIA was tested at 10 mg/kg, 1 mg/kg and 0.1 mg/kg; Compound IIIA was tested at 32 mg/kg, 10 mg/kg, 3 mg/kg and 1 mg/kg; and rimonabant was tested at 3 mg/kg. Both Compound IIA and Compound IIIA were efficacious at 10 mg/kg.
# [2] = Body weight and food intake in diet-induced obese (DIO) mice; assay type: in vivo, mouse; settings: 15 mg/kg twice daily po
# Protocol: Mice were individually housed and divided into two groups: a group of control mice which remained on Purina 5001 chow; and another group which was switched to a diet composed of 45 kcal % fat (D12331 Rodent Diet, Research Diets, Inc., New Brunswick, N.J.) for the duration of the 6 week study. Food intake was measured on a 24-hour, 5 days/week cycle (Monday-Friday). Body weight was determined on Day 0 and thereafter at the same time that food intake was measured. For testing the effects of a PDE10 inhibitor on body weight and oxygen consumption, a mouse model of diet-induced obesity (DIO) was used. Obesity was induced in the mice by maintaining them on a 45% fat diet for more than 14 weeks. DIO mice were treated with Compound IVA at a dose of 15 mg/kg, administered twice daily (p.o.) for 14 days. Control mice were administered a vehicle of 0.5% methylcellulose. Measurements were made as previously described. DIO mice were treated with Compound IVA at a dose of 15 mg/kg administered twice daily (po). Control mice were administered the vehicle, 0.5% methylcellulose. […] Oxygen consumption was determined in the Compound IV and vehicle treated mice at the end of the study.
# [3] = Oxygen consumption in diet-induced obese (DIO) mice; assay type: in vivo, mouse; settings: 15 mg/kg twice daily po, at the end of the study, vs vehicle
# Protocol: Following determination of body composition, energy expenditure and oxygen consumption were determined using an Oxymax system (Columbus Instruments, Columbus, Ohio). Mice were housed under standard laboratory conditions and maintained on the experimental diet. Mice were acclimated to sealed chambers (8″×4″×5.5″) of the calorimeter (one mouse per chamber). The chambers were placed in activity monitors. The calorimeter was calibrated before each use, airflow was adjusted to 1.6 liters/min, and the system setting and sampling times were set to 60 seconds and 15 seconds, respectively. Oxygen consumption, carbon dioxide production, and ambulatory activity were measured every 10 minutes for a period of 4 hours. For testing the effects of a PDE10 inhibitor on body weight and oxygen consumption, a mouse model of diet-induced obesity (DIO) was used. Obesity was induced in the mice by maintaining them on a 45% fat diet for more than 14 weeks. DIO mice were treated with Compound IVA at a dose of 15 mg/kg, administered twice daily (p.o.) for 14 days. Control mice were administered a vehicle of 0.5% methylcellulose. Measurements were made as previously described. DIO mice were treated with Compound IVA at a dose of 15 mg/kg administered twice daily (po). […] Oxygen consumption was determined in the Compound IV and vehicle treated mice at the end of the study.
Structure (SMILES),effect on food intake (fasting-induced refeeding) [1],"fasting-induced refeeding, dose dependence [1]","body weight change ([2]; 14 days, vs vehicle 0.5% methylcellulose)",onset of weight loss ([2]; apparent on the 4th day),food intake ([2]; vs vehicle 0.5% methylcellulose),oxygen consumption [3]
"COc1cc2nc(N3CCNCC3)nc(-c3ccccc3F)c2cc1OC [Compound IIIA, 4-(2-Fluorophenyl)-6,7-dimethoxy-2-piperazin-1-yl-quinazoline]",efficacious,reduce fasting-induced refeeding in the rats in a dose dependent fashion,–,–,–,–
"c1ccc2nc(COc3ccc(-c4[nH]ncc4-c4ccncc4)cc3)ccc2c1 [Compound IVA, 2-[4-(4-Pyridin-4-yl-2H-pyrazol-3-yl)-phenoxymethyl]-quinoline]",–,–,led to weight loss,after three days treatment,small reduction in food intake,slight non-significant increase in oxygen consumption
"COc1cc2ncnc(N3CC[C@@H](Oc4cnc5ccccc5n4)C3)c2cc1OC (stereo in doubt) [Compound IIA, 6,7-Dimethoxy-4-[3-(quinoxalin-2-yloxy)-pyrrolidin-1-yl]-quinazoline]",efficacious,reduce fasting-induced refeeding in the rats in a dose dependent fashion,–,–,–,–
